Experimental data as given in PubChem BioAssay (NCI).
Values joined by “and” are separate entries in the source; they are usually repeats but may differ in a detail not shown here. Equal entries are not always repeated.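 How tested: cells in 96-well plates exposed to compound for 48 hours at five concentrations. The concentration for 50% growth inhibition is given as GI50. At the TGI there is no net growth.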

Experiments:
Experiment in all cases: growth of human tumour cells (NCI), 48 h
ACHN renal = system: ACHN renal
COLO 205 colon = system: COLO 205 colon
HCT-116 colon = system: HCT-116 colon
HOP-62 NSCLC = system: HOP-62 NSCLC
IGROV1 ovarian = system: IGROV1 ovarian
MDA-MB-231 breast = system: MDA-MB-231 breast
NCI-H226 lung = system: NCI-H226 lung
RPMI-8226 leukemia = system: RPMI-8226 leukemia
SF-268 CNS = system: SF-268 CNS
UACC-62 melanoma = system: UACC-62 melanoma

Row | Structure (SMILES) | GI50 (ACHN renal) | TGI (ACHN renal) | GI50 (COLO 205 colon) | TGI (COLO 205 colon) | GI50 (HCT-116 colon) | TGI (HCT-116 colon) | GI50 (HOP-62 NSCLC) | TGI (HOP-62 NSCLC) | GI50 (IGROV1 ovarian) | TGI (IGROV1 ovarian) | GI50 (MDA-MB-231 breast) | TGI (MDA-MB-231 breast) | GI50 (NCI-H226 lung) | TGI (NCI-H226 lung) | GI50 (RPMI-8226 leukemia) | TGI (RPMI-8226 leukemia) | GI50 (SF-268 CNS) | TGI (SF-268 CNS) | GI50 (UACC-62 melanoma) | TGI (UACC-62 melanoma)
1 | C[C@]12CCc3nc(Nc4ccc(O)cc4)sc3C1=CC[C@@H]1[C@@H]2CC[C@]2(C)/C(=N/NC(N)=S)CC[C@@H]12 | 1.59 µM | 2.99 µM | 1.56 µM | 3.39 µM | 1.15 µM | 2.57 µM | 1.7 µM | 4.21 µM | 1.45 µM | 3 µM | 1.88 µM | 4.79 µM | 1.71 µM | 4.05 µM | 1.49 µM | 5.8 µM | 1.34 µM | 3.98 µM | 1.43 µM | 2.89 µM
2 | OCc1ccc(-c2ccc(-c3ccc(CO)o3)o2)o1 | 35.9 µM | > 100 µM | 18.6 µM | 48.2 µM | > 88.9 µM | > 100 µM | 27.1 µM | > 78 µM |  | > 31.2 µM | 33.1 µM | > 100 µM | 0.576 µM | 2.59 µM | > 100 µM | > 100 µM | > 61.7 µM | > 100 µM | 16.7 µM | > 100 µM
3 | N=C(N)n1cc(/C=N/N=C(N)N)cn1 |  | > 100 µM |  | > 100 µM |  | > 100 µM |  | > 100 µM |  | > 100 µM |  | > 100 µM |  | > 100 µM |  | > 100 µM |  | > 100 µM |  | > 100 µM
4 | O=C1Nc2ccc(-c3cccnc3)cc2/C1=C/c1cc(Br)c(O)c(Br)c1 | 8.15 µM | > 25 µM | 11.8 µM | > 25 µM | 6.54 µM | > 25 µM | 8.43 µM | > 25 µM | 7.09 µM | > 25 µM | 7.41 µM | > 25 µM | 8.43 µM | > 25 µM | 5.38 µM | 19.7 µM | 7.71 µM | > 25 µM | 3.54 µM | 9.87 µM
5 | COC(=O)c1ccc(NC(N)=NCCC(C)(C)c2ccc(C(F)(F)F)cc2)nc1 | 1.91 µM | 4.85 µM | 1.7 µM | 3.41 µM | 1.6 µM | 3.3 µM | 6.16 µM | 22 µM | 1.77 µM | 3.82 µM | 1.76 µM | 3.34 µM | 3.33 µM | 18.8 µM | 1.65 µM | 4.26 µM | 6.23 µM | 24.8 µM | 1.58 µM | 3.07 µM
6 | CCc1ccc(Oc2c(-c3ccc(OCc4ccc(Cl)cc4)cc3O)nn(C)c2C(F)(F)F)cc1 | 0.385 µM | 1.7 µM | 0.457 µM | 1.73 µM | 0.259 µM | 1.1 µM | 1.34 µM | 2.83 µM | 0.654 µM | 2.7 µM | 1.19 µM | 2.85 µM | 1.18 µM | 3.6 µM | 0.505 µM | 3.6 µM | 1.25 µM | 2.9 µM | 0.516 µM | 2.25 µM
7 | COc1cc([C@@H]2c3cc4c(cc3[C@H](SC(=N)N)[C@H]3COC(=O)[C@H]23)OCO4)cc(OC)c1OC | 0.41 µM | > 84.2 µM | 0.198 µM | 0.422 µM | 0.197 µM | > 100 µM | 0.419 µM | > 100 µM | 0.227 µM | 4.66 µM | 0.388 µM | > 100 µM | 0.573 µM | > 100 µM | 0.409 µM | 32 µM | 0.421 µM | > 100 µM | 1.64 µM | > 100 µM
8 | CO[C@H]1C(=O)[C@]2(C)[C@@H](OC)C[C@H]3OC[C@@]3(OC(C)=O)[C@H]2[C@H](OC(=O)c2ccccc2)[C@]2(O)C[C@H](OC(=O)[C@H](O)[C@@H](NC(=O)OC(C)(C)C)c3ccccc3)C(C)=C1C2(C)C | 12.6 µM | > 100 µM | < 0.01 µM | 0.0103 µM | < 0.01 µM | 21.2 µM | < 0.01 µM | > 80.4 µM | < 0.01 µM | > 100 µM | < 0.0183 µM | > 53.6 µM | 2.09 µM | 39.7 µM | < 0.01 µM | > 38 µM | < 0.01 µM | 68.6 µM | < 0.0147 µM | 56.8 µM
9 | CC[n+]1c(-c2ccccc2)c2cc(N)ccc2c2ccc(N)cc21 | 14.1 µM | > 100 µM | 0.612 µM | 2.24 µM and 7.14 µM | 1.71 µM | 12.7 µM and 25.3 µM and 26.6 µM | 0.863 µM and 7.4 µM and 2.38 µM |  | 0.522 µM | 10.2 µM and 12.9 µM | 2.11 µM | 39.3 µM and 37.3 µM | 0.504 µM and 0.723 µM and 2.65 µM | 4.55 µM and 5.64 µM and 13.5 µM | 2.23 µM and 1.02 µM and 2.64 µM | > 100 µM and 10.4 µM and 24.3 µM | 0.281 µM and 0.589 µM and 1.26 µM | 2.44 µM and 11.9 µM and 16.9 µM | 0.578 µM | 2.4 µM and 3.61 µM
10 | O=C(CCCCN1CCN(CCCCC(=O)Nc2ccccc2C#C/C=C\C#Cc2ccccc2C(F)(F)F)CC1)Nc1ccccc1C#C/C=C\C#Cc1ccccc1C(F)(F)F | 20.9 µM | > 50 µM | 38.3 µM | > 50 µM | 9.18 µM | 17.8 µM | 12.2 µM | 32 µM | 9.37 µM | 26.2 µM | 6.23 µM | 16 µM | 40.7 µM | > 50 µM | 7.46 µM | 19.1 µM | 12.3 µM | 32.9 µM | 11 µM | 22.8 µM
11 | COc1cccc(-c2cc(=O)c3cc(N4CCN(C)CC4)ccc3[nH]2)c1 | 3.74 µM | > 100 µM | 2.02 µM | 3.55 µM and 10.7 µM | 0.92 µM | > 100 µM | 10.7 µM | > 100 µM | 2.86 µM | > 100 µM | 2.24 µM | 9.89 µM and 7.13 µM | 2.83 µM |  | 1.93 µM | 6.11 µM | 4.28 µM | > 100 µM | 1.46 µM | > 100 µM
12 | CCOC(=O)[C@@H](C)C[C@H](Cc1ccccc1)NC(=O)c1csc([C@@H](C[C@H](C(C)C)N(C)C(=O)CNC(=O)[C@H]2CCCCN2C)OC(C)=O)n1 | 0.837 µM | > 14.3 µM | 0.483 µM | 3.64 µM | 0.529 µM | > 14.3 µM | 1.87 µM | > 14.3 µM | 0.628 µM | > 14.3 µM | 1.44 µM | > 10.8 µM | > 5.67 µM | > 14.3 µM | 0.496 µM | > 14.3 µM | 4.89 µM | > 14.3 µM | 0.514 µM | > 14.3 µM
